Reference: US7321056B2, “Selective peroxisome proliferator activated receptor modulators” (Eli Lilly and Company, priority 2003, dated 2008)
Where two headings read alike, the source gives them in different places.

Tests used:
[1] = biological target: T1, PPARγ ligand binding domain / TRAP220 (Homo sapiens, UniProt P37231); assay: Co-factor recruitment assay (mammalian-2-hybrid, CV-1 cells), TRAP220; type: cell-based; conditions: for TRAP220 Eff: relative to a PPARγ full agonist
T1 construct: expressed in transfected cells; host or cells: CV-1 cells
Text: (§1) A mammalian-2-hybrid assay system in CTF format is done in CV-1 cells. The following plasmids are used: a mammalian expression vector encoding a fusion of the GAL4 DNA binding domain with the PPARγ ligand binding domain; a mammalian expression vector encoding a fusion of the VP16 transactivation domain with the nuclear receptor interaction domain of the respective co-activators: CREB-binding protein (CBP), peroxisome proliferator-activated receptor gamma coactivator-1 (PGC-1), activating signal cointegrator-2 (ASC-2), thyroid hormone receptor-activated protein complex (TRAP220), and the peptide C33; and a reporter plasmid (multimerized GAL4 binding sites/minimal TK promoter driving a luciferase cDNA). Cells are transfected in batch format and treated with compound (full log dilution from 0.1 nM to 10 μM) or vehicle for 24 hours. Subsequently, the cells are lysed and luciferase activity is measured. Luciferase activity serves as the endpoint for interaction between co-activator and receptor. The data are presented as % efficacy relative to a PPARγ full agonist and represent means from four to six separate experiments.

[2] = biological target: T2, PPARγ ligand binding domain / PGC-1 (Homo sapiens, UniProt P37231); assay: Co-factor recruitment assay (mammalian-2-hybrid, CV-1 cells), PGC-1; type: cell-based; conditions: for EC50: read-out: PGC1 EC50; for PGC1 Eff: relative to a PPARγ full agonist
T2 construct: expressed in transfected cells; host or cells: CV-1 cells
T2 sequence (P37231 238-503 limits assumed): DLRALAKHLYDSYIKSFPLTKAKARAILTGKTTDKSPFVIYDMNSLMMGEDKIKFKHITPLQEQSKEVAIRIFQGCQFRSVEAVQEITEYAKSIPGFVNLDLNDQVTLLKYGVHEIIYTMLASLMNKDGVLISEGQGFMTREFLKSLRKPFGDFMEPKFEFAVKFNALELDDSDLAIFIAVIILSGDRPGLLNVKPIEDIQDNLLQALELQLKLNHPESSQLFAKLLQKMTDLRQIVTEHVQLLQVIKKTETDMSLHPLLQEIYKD
T2 sequence (Q9UBK2 1-798 partner): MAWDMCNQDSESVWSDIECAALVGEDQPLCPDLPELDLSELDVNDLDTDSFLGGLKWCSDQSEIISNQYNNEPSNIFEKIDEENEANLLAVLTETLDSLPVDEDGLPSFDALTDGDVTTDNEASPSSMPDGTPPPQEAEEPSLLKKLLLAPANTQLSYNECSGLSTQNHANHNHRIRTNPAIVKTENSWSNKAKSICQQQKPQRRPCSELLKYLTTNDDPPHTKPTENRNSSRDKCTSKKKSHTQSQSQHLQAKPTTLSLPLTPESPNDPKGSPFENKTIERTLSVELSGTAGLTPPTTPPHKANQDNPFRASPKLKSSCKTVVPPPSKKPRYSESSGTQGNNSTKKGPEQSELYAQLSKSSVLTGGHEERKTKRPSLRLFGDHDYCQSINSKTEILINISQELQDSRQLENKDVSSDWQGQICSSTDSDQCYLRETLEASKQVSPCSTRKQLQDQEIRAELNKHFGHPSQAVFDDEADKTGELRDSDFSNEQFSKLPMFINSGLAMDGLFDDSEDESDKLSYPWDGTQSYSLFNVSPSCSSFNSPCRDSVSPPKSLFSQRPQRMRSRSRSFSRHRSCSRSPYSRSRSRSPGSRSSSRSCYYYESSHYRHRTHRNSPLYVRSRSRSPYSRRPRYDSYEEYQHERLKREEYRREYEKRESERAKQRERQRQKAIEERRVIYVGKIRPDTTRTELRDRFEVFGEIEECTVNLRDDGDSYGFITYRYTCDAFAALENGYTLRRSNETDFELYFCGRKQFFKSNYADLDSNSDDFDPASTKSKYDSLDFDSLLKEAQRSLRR
Text: as §1

PPARα [3] = biological target: T3, PPARα (Homo sapiens, UniProt Q07869); assay: Cotransfection (CTF) assay, PPARα GAL4 chimeric system in CV-1 cells; type: cell-based; conditions: for Eff (α): relative to reference molecule
T3 construct: For PPARα, a GAL4 chimeric system is the standard CTF assay performed
T3 sequence (Q07869 200-468 limits assumed): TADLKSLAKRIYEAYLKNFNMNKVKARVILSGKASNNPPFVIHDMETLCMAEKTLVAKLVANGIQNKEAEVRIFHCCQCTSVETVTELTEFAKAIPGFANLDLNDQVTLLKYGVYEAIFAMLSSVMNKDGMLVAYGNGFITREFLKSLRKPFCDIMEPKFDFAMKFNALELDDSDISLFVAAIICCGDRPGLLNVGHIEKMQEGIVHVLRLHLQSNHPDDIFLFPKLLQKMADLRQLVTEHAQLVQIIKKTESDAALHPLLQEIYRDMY
Text: (§2) PPARγ or PPARα are constitutively expressed using plasmids containing the cytomegalovirus promoter. Reporter plasmids for the PPARγ CTF assays contain PPREs from the following genes: acyl coA oxidase (AOX); apolipoprotein A1 (ApoA1); lipoprotein lipase (LPL); or enoyl-CoA hydratase/3-hydroxyacyl-CoA dehydrogenase (HD) plus the thymidine kinase (TK) promoter upstream of the luciferase reporter cDNA. A PPARγ […] galactosidase (GAL4) chimeric system is also used. For PPARα, a GAL4 chimeric system is the standard CTF assay performed. All assays are done in CV-1 cells. Compounds are tested in full log dilution, from 0.1 nM to 10 μM in duplicate. Percent efficacies are determined relative to reference molecules with the efficacy value reflecting the greatest amount of agonist activity achieved in the CTF assay for each compound. Median effective concentration (EC50) values are determined by computer fit to a concentration-response curve. An EC50 value is not calculated if the efficacy for the compound is <20%. Reported values represent means from two to nine separate experiments.

[4] = biological target: T4, PPARγ ligand binding domain / peptide C33 (Homo sapiens, UniProt P37231); assay: Co-factor recruitment assay (mammalian-2-hybrid, CV-1 cells), peptide C33; type: cell-based; conditions: for C33 Eff: relative to a PPARγ full agonist
T4 construct: expressed in transfected cells; host or cells: CV-1 cells
T4 sequence (P37231 238-503 limits assumed): T2 sequence (P37231 238-503 limits assumed)
Text: as §1

PPARγ [5] = biological target: T5, PPARγ (Homo sapiens, UniProt P37231); assay: Cotransfection (CTF) / response element assays, PPARγ in CV-1 cells; type: cell-based; parameters: Eff (γ); HD Eff; other: response element assay, HD PPRE reporter; LPL Eff; other: response element assay, LPL PPRE reporter; ApoA1 Eff; other: response element assay, ApoA1; PPARγ or PPARα are constitutively expressed using plasmids containing the cytomegalovirus promoter; conditions: for Eff (γ): Table 1, relative to PPARγ full agonist set at 100%
T5 sequence (P37231 238-505 limits assumed): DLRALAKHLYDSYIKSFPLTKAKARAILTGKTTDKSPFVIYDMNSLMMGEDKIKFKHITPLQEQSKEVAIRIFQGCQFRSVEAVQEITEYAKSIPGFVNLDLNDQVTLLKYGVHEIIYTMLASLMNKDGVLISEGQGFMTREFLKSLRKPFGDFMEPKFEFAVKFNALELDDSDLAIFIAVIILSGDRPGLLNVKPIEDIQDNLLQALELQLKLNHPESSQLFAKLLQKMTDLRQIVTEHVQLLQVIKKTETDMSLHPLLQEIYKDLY
Text: as §2

PPARγ [6] = biological target: T6, PPARγ (Homo sapiens, UniProt P37231); assay: Competitive displacement binding assay (SPA), PPARγ; conditions: PPARγ/RXRα
T6 construct: made in house; host or cells: baculovirus expression system
Protocol: (§3) Binding assays are performed using scintillation proximity assay (SPA) technology, PPAR receptors, and corresponding radiolabeled ligands. PPARα and PPARγ along with their heterodimeric partner, retinoid X receptor α, are each produced using a baculovirus expression system. Biotinylated oligonucleotides containing PPAR response elements (PPREs) are used to couple the corresponding receptor dimers to yttrium silicate streptavidin-coated SPA beads. PPARγ- and PPARα-specific ligands are labeled with tritium and used in the appropriate corresponding assays. The IC50 values (compound concentration which causes 50% inhibition) for each competing compound are calculated after deduction of non-specific binding (measured in the presence of 10 μM unlabeled ligand). Compounds are evaluated using an 11-point dose response curve with concentrations ranging from 0.169 nM to 10 μM. Reported values represent means from one to seven separate experiments.
T6 sequence (P37231 whole entry): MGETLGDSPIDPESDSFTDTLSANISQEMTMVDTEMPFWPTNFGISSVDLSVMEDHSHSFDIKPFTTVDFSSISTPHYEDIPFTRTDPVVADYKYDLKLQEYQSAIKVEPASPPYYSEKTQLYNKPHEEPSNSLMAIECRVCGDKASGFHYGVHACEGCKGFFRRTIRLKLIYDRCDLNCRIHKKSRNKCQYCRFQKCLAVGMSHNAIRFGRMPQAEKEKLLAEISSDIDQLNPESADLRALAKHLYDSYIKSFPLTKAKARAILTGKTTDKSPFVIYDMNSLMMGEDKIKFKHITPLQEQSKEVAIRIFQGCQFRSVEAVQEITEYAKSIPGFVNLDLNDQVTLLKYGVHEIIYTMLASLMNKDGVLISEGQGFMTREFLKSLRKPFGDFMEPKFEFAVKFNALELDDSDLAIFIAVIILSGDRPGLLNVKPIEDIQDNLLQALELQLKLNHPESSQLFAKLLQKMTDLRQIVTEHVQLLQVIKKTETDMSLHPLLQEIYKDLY
T6 sequence (P19793 whole entry, further chain): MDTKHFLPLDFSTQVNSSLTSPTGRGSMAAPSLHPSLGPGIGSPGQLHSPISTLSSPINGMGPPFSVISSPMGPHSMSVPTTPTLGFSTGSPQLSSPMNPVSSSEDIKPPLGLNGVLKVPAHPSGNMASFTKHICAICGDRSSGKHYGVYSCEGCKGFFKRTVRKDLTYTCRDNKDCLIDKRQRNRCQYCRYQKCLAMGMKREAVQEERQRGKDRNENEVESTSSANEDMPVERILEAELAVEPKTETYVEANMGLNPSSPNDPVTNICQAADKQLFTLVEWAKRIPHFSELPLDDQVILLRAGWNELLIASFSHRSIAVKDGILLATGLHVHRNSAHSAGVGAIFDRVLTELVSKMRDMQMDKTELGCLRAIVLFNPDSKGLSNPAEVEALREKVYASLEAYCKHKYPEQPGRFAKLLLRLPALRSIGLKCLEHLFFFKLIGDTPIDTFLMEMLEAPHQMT

PPARα [7] = biological target: T7, PPARα (Homo sapiens, UniProt Q07869); assay: Competitive displacement binding assay (SPA), PPARα; conditions: PPARα/RXRα
T7 construct: made in house; host or cells: baculovirus expression system
Protocol: as §3

[8] = biological target: T8, PPARγ ligand binding domain / ASC-2 (Homo sapiens, UniProt P37231); assay: Co-factor recruitment assay (mammalian-2-hybrid, CV-1 cells), ASC-2; type: cell-based; conditions: for EC50: read-out: ASC2 EC50; for ASC2 Eff: relative to a PPARγ full agonist
T8 construct: expressed in transfected cells; host or cells: CV-1 cells
Text: as §1

PPARγ [9] = biological target: T5, PPARγ; assay: Cotransfection (CTF) / response element assays, PPARγ in CV-1 cells; type: cell-based; parameters: rows headed: PPARγ efficacy (% efficacy compared to a PPARγ full agonist set at 100%); PPARγ or PPARα are constitutively expressed using plasmids containing the cytomegalovirus promoter; conditions: CV-1; range over CTF assays of Tables 1 and 3; read-out: PPARγ efficacy (% efficacy compared to a PPARγ full agonist set at 100%)
Text: as §2

PPARγ [10] = biological target: T5, PPARγ; assay: as above; type: cell-based; parameters: Gla4 Eff; other: response element assay, GAL4 chimeric system; A PPARγ bacterial galactosidase (GAL4) chimeric system is also used; conditions: response element assay, GAL4 chimeric system; for EC50: read-out: Gla4 EC50
Text: as §2

diabetic (db/db) mice = assay: Glucose, triglyceride, hematocrit levels and body weight gain in diabetic mice; conditions: for plasma glucose normalization / plasma triglycerides normalization: db/db mice
Protocol: Five-week-old male diabetic (db/db) mice (Harlan Laboratories, Indianapolis, Ind.) are housed in plastic cages (n=6/cage; cage size is approximately 10×20×8″ with aspen chip bedding) with free access to water (sipper system—city tap water) and food (Purina 5008). After two weeks of acclimation, animals (7 weeks of age) are bled on day 0 at 1000-1200 h (lights on 0600 h) and assigned to treatment groups (n=5 or 6) based on starting glucose values. Compound or vehicle only treatments are administered daily by oral gavage at approximately 0730 h. Body weights are measured at the beginning (day 0) and end (day 7 or day 14) of the studies. Blood is collected in heparinized tubes from the tail of nonfasted animals two to three hours after the last dose. Hematocrit, glucose and triglycerides levels are then determined. The reported values for glucose and triglyceride levels represent the % of normalization compared to the lean littermate values set at 100% or glucose normalization calculated based on a normal glucose level of 250 mg/dl. Statistical significance between experimental groups is assessed using a two-sided student's t-test.
Plasma glucose and hematocrit levels along with body weight are measured before the study began (day 0) and at the end of the study (day 14).
Plasma glucose, triglyceride, and hematocrit levels along with body weight are measured before the study began (day 0) and at the end of the study (day 7).

[11] = biological target: T9, PPARγ ligand binding domain / CREB-binding protein (CBP) (Homo sapiens, UniProt P37231); assay: Co-factor recruitment assay (mammalian-2-hybrid, CV-1 cells), CBP; type: cell-based; conditions: for CBP Eff: relative to a PPARγ full agonist
T9 construct: expressed in transfected cells; host or cells: CV-1 cells
Text: as §1

[12] = CTF, Table 1, read-out: EC50 (γ)
[13] = response element assay, HD PPRE reporter
[14] = response element assay, HD PPRE reporter, read-out: HD EC50
[15] = response element assay, LPL PPRE reporter
[16] = response element assay, LPL PPRE reporter, read-out: LPL EC50
[17] = 3 mg/kg/day oral gavage, 7 days
[18] = 10 mg/kg/day oral gavage, 7 days
[19] = 30 mg/kg/day oral gavage, 7 days
[20] = 100 mg/kg/day oral gavage, 7 days

T9 sequence (Q92793 whole entry partner, species assumed, one chain of several, the tested form may be a part): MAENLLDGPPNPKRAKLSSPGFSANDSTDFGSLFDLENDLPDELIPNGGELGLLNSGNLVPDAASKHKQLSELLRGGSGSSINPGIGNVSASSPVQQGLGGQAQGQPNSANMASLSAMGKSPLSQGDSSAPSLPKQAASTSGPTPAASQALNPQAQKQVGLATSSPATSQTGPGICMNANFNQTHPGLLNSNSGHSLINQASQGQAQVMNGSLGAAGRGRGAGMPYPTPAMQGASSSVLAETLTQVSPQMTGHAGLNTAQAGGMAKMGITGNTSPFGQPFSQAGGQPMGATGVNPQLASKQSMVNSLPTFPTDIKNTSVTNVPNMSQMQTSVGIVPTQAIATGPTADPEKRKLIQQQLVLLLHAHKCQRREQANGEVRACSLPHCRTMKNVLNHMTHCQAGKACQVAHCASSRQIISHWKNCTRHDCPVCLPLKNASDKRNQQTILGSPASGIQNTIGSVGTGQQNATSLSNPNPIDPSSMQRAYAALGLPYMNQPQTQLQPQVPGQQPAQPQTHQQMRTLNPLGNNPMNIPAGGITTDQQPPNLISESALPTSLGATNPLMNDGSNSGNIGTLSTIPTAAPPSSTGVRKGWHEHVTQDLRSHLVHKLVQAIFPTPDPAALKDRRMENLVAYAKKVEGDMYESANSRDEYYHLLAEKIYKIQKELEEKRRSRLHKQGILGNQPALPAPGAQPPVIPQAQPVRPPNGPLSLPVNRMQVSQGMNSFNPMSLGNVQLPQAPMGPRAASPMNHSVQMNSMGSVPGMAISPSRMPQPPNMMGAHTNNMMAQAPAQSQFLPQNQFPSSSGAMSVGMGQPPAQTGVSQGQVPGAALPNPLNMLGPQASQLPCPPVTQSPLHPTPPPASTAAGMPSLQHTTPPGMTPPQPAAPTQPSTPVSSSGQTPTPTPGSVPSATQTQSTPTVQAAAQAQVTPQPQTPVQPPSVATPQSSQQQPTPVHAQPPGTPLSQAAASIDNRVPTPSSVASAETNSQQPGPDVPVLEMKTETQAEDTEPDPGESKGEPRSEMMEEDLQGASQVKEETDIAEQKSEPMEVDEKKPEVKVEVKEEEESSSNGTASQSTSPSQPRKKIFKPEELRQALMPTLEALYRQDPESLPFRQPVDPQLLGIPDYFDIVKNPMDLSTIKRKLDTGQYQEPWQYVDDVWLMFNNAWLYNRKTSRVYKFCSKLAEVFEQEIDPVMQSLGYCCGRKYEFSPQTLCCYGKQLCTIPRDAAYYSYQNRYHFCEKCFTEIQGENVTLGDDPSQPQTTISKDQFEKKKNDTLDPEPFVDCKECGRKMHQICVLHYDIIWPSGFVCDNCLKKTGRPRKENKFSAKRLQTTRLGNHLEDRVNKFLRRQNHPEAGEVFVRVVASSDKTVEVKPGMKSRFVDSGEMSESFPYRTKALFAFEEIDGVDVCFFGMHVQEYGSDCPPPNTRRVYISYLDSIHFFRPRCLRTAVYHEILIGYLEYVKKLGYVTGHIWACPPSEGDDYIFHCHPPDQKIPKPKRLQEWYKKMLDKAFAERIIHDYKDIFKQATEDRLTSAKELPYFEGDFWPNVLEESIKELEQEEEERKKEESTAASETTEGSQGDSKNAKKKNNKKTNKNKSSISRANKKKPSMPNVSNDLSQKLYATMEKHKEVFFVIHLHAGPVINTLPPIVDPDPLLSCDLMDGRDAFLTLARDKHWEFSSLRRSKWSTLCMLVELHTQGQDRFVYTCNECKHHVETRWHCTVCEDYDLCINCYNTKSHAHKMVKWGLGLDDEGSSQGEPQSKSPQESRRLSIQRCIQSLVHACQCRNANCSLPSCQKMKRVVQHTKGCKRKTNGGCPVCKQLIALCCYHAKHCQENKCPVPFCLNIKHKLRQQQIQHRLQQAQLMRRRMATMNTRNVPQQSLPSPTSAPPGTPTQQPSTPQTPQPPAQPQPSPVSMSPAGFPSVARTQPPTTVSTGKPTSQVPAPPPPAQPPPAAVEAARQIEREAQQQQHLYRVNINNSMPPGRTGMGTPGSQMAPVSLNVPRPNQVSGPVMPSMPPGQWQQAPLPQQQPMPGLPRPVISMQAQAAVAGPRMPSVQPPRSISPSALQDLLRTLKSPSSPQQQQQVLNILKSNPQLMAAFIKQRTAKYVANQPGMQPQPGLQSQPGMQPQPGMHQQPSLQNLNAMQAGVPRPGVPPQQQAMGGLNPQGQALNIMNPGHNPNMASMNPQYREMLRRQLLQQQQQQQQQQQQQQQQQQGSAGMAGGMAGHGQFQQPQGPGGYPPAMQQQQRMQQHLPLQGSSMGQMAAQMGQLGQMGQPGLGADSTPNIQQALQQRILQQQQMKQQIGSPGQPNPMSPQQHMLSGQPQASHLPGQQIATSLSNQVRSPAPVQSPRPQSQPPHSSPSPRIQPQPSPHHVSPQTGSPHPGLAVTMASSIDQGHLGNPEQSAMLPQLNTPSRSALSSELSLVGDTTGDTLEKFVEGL
T1 sequence (Q15648 whole entry partner, species assumed, one chain of several, the tested form may be a part): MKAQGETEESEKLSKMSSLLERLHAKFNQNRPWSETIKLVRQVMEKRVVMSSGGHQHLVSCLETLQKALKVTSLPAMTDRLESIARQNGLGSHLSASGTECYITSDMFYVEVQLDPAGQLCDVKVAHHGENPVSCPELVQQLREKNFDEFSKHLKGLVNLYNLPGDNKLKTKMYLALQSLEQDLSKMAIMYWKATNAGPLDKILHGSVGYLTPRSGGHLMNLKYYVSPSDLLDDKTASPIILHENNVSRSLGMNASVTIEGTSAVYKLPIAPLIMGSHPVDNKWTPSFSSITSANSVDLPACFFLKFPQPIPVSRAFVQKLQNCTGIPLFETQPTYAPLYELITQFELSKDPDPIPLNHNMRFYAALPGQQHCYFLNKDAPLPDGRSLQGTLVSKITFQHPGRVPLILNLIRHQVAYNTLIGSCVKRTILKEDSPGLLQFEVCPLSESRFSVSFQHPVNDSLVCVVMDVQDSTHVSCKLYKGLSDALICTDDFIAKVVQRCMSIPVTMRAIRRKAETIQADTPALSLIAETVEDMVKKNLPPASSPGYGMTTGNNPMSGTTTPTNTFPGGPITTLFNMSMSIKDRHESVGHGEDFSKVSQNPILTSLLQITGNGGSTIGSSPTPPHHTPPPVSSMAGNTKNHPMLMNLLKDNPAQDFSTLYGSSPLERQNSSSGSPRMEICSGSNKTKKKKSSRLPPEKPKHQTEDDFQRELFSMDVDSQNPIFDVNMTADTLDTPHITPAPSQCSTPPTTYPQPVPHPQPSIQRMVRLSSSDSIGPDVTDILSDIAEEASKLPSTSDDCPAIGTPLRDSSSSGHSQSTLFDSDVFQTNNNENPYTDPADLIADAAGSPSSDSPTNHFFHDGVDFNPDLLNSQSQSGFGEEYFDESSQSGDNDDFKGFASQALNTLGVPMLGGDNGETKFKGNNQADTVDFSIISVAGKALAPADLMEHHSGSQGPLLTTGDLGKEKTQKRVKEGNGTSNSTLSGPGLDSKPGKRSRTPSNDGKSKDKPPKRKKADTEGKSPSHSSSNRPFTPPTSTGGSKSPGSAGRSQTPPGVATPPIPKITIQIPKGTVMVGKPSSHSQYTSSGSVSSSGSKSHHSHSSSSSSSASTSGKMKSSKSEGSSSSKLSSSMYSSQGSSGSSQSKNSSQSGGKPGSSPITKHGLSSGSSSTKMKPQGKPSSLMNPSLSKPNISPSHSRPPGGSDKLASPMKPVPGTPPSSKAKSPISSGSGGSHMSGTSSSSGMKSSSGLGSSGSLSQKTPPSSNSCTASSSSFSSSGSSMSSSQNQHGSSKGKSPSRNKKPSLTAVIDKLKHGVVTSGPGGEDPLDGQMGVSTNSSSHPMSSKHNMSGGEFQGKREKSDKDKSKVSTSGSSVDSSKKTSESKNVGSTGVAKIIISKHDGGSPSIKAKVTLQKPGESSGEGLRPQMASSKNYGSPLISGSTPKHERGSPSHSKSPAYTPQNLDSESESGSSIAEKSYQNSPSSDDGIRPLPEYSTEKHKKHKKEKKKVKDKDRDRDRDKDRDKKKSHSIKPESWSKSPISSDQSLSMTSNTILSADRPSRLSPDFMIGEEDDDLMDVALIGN

TRAP220 Eff [1] [% efficacy]	EC50 [2] [nM]	PGC1 Eff [2] [% efficacy]	EC50 (PPARα [3]) [nM]	Eff (α) (PPARα [3]) [% efficacy]	EC50 [4] [nM]	C33 Eff [4] [% efficacy]	Eff (γ) (PPARγ [5]; CTF) [% efficacy]	EC50 (PPARγ [5]; [12]) [nM]	HD Eff (PPARγ [5]; [13]) [% efficacy]	EC50 (PPARγ [5]; [14]) [nM]	LPL Eff (PPARγ [5]; [15]) [% efficacy]	EC50 (PPARγ [5]; [16]) [nM]	IC50 (PPARγ [6]) [nM]	IC50 (PPARα [7]) [nM]	EC50 [8] [nM]	ASC2 Eff [8] [% efficacy]	Emax (PPARγ [9]) [%]	Gla4 Eff (PPARγ [10]) [% efficacy]	EC50 (PPARγ [10]) [nM]	Structure (SMILES)	other results
7	2070	24	1300	43	3010	13	60	1890	54	1140	86	1420	52	113	1380	15	30 to 86	30	1980	COc1ccc(CCNC(=O)COc2ccc(C[C@H](OC)C(=O)O)cc2)cc1 [formula III, (2S)-3-(4-{[2-(4-methoxy-phenyl)-ethylcarbamoyl]-methoxy}-phenyl)-2-methoxy-propionic acid]	TRAP220 efficacy [1]: Eff < 20; melting point: 97 to 98 °C; plasma glucose normalization (diabetic (db/db) mice; 1 mg/kg/day oral gavage, 14 days): 42.7 % normalization; plasma glucose normalization (diabetic (db/db) mice; 3 mg/kg/day oral gavage, 14 days): 68.3 % normalization; plasma glucose normalization (diabetic (db/db) mice; 10 mg/kg/day oral gavage, 14 days): 96.1 % normalization; plasma glucose normalization (diabetic (db/db) mice; 30 mg/kg/day oral gavage, 14 days): 109.3 % normalization; dose-dependent reduction in hematocrit levels, indicative of plasma volume expansion (diabetic (db/db) mice; db/db mice, 1, 3, 10, 30 mg/kg/day oral gavage, 14 days): not seen; EC50 [11]: 1920 nM; CBP Eff [11]: 15 % efficacy
16	2600	24	1810	39	2890	43	60	1010	58	1040	80	466	30	360	2870	33	39 to 80	39	1910	CCOc1ccc(CCNC(=O)COc2ccc(C[C@H](OC)C(=O)O)cc2)cc1 [formula V, (S)-3-(4-{[2-(4-ethoxy-phenyl)-ethylcarbamoyl]-methoxy}-phenyl)-2-methoxy-propionic acid]	EC50 [1]: 3060 nM; ApoA1 Eff (PPARγ [5]; response element assay, ApoA1 PPRE reporter): 39 % efficacy; EC50 (PPARγ [5]; response element assay, ApoA1 PPRE reporter, read-out: ApoA1 EC50): 335 nM; plasma glucose normalization (diabetic (db/db) mice; [17]): 61.2 % normalization; plasma triglycerides normalization (diabetic (db/db) mice; [17]): 108.1 % normalization; plasma glucose normalization (diabetic (db/db) mice; [18]): 87.5 % normalization; plasma triglycerides normalization (diabetic (db/db) mice; [18]): 108.1 % normalization; plasma glucose normalization (diabetic (db/db) mice; [19]): 105.6 % normalization; plasma triglycerides normalization (diabetic (db/db) mice; [19]): 121.1 % normalization; plasma glucose normalization (diabetic (db/db) mice; [20]): 110.3 % normalization; plasma triglycerides normalization (diabetic (db/db) mice; [20]): 130.6 % normalization; EC50 [11]: 2640 nM; CBP Eff [11]: 18 % efficacy
